In the supplement of paper PMC12420376:

Assays:
KURAMOCHI = assay: drug sensitivity score (DSS2) on cancer cell count; higher = more sensitive; extreme values may be limits of the assay; conditions: 72 h
Method in brief: (§1)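 Ovarian cancer cells were grown alone or in 1:1 direct co-culture with lung or skin fibroblasts. They were plated onto 384-well plates pre-spotted acoustically with 528 approved and investigational compounds at 5 concentrations, then treated for 72 h. Cells were fixed, immunostained for CK8/18 with Hoechst, and imaged at 10× (4 fields) to count cancer cells. A drug sensitivity score (DSS2) was derived in Breeze from 4-parameter logistic fits, with screen quality checked by Z'.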

OVCAR8 = assay: as above; conditions: 72 h
Method in brief: as §1

[1] = co-cultured fibroblast: BJHTERT
[2] = co-cultured fibroblast: none (monoculture)

Structure (SMILES) | drug sensitivity score (KURAMOCHI; [1]) | drug sensitivity score (KURAMOCHI; co-cultured fibroblast: WI38) | drug sensitivity score (KURAMOCHI; [2]) | drug sensitivity score (OVCAR8; [1]) | drug sensitivity score (OVCAR8; co-cultured fibroblast: WI38) | drug sensitivity score (OVCAR8; [2])
O=c1[nH]cc(F)c(=O)[nH]1 [Fluorouracil] | 2.3 DSS | 5.4 DSS | 5 DSS | 1.3 DSS | 1.4 DSS | 5.5 DSS
CC(C)C(=O)Nc1ccc([N+](=O)[O-])c(C(F)(F)F)c1 [Flutamide] | 0 DSS | 1.3 DSS | 0 DSS | 0 DSS | 0 DSS | 0 DSS
COc1cc2c(Oc3ccc(NC(=O)C4(C(=O)Nc5ccc(F)cc5)CC4)cc3F)ccnc2cc1OCCCN1CCOCC1 [Foretinib] | 2.7 DSS | 4.3 DSS | 1.7 DSS | 5.7 DSS | 5.6 DSS | 6.1 DSS
COc1cc(Nc2ncc(F)c(Nc3ccc4c(n3)N(COP(=O)(O)O)C(=O)C(C)(C)O4)n2)cc(OC)c1OC [Fostamatinib] | 0 DSS | 2 DSS | 0.3 DSS | 0 DSS | 0 DSS | 0 DSS
C[C@]12CC[C@@H]3c4ccc(O)cc4C[C@@H](CCCCCCCCC[S+]([O-])CCCC(F)(F)C(F)(F)F)[C@H]3[C@@H]1CC[C@@H]2O (some centres not stated) [Fulvestrant] | 0 DSS | 0 DSS | 0 DSS | 0 DSS | 7.2 DSS | 0 DSS
CC1(C)OCCn2c1nc1c(N3CCOCC3)nc(-c3cnc(N)nc3)nc12 [GDC-0084] | 12.7 DSS | 11.5 DSS | 12.1 DSS | 8.3 DSS | 3.8 DSS | 11.9 DSS
O=C(NOCCO)c1ccc2cncn2c1Nc1ccc(I)cc1F [GDC-0623] | 0 DSS | 0 DSS | 18.9 DSS | 7.5 DSS | 0 DSS | 19.2 DSS
C[C@H]1CN(C2COC2)CCN1c1ccc(Nc2cc(-c3ccnc(N4CCn5c(cc6c5CC(C)(C)C6)C4=O)c3CO)cn(C)c2=O)nc1 [GDC-0853] | 0 DSS | 0 DSS | 0 DSS | 0 DSS | 2.3 DSS | 0 DSS
O[C@H](C[C@H]1c2c(F)cccc2-c2cncn21)[C@H]1CC[C@H](O)CC1 [GDC-0919] | 1.3 DSS | 0 DSS | 0 DSS | 0 DSS | 0 DSS | 1.6 DSS
CNc1nc(Nc2cn(C(C)(C)C#N)nc2C)ncc1C(F)(F)F [GNE-0877] | 0 DSS | 0 DSS | 0 DSS | 0 DSS | 1.8 DSS | 0 DSS
CCNc1nc(Nc2cc(F)c(C(=O)N3CCOCC3)cc2OC)ncc1C(F)(F)F [GNE-7915] | 0 DSS | 0 DSS | 0 DSS | 0 DSS | 0 DSS | 0 DSS
CCCc1cc(C)[nH]c(=O)c1CNC(=O)c1cc(-c2ccnc(N3CCN(C)CC3)c2)cc2c1cnn2C(C)C [GSK343] | 0 DSS | 0 DSS | 0 DSS | 1 DSS | 0 DSS | 0 DSS
CCCOc1ccn2c(C(C)=O)cc(-c3ccccc3S(C)(=O)=O)c2c1 [GSK2801] | 0 DSS | 0 DSS | 0.9 DSS | 0 DSS | 0 DSS | 0 DSS
CCOC(=O)CCNc1cc(N2CCc3ccccc3CC2)nc(-c2ccccn2)n1 [GSK-J4] | 3.1 DSS | 2.7 DSS | 10.5 DSS | 1.6 DSS | 0.3 DSS | 4.2 DSS
C[C@@H]1C=C2C(=O)O[C@@H]3CC[C@H](C1)[C@]23O [Galiellalactone] | 6.9 DSS | 8.2 DSS | 3.5 DSS | 0 DSS | 3.9 DSS | 0 DSS
Cc1cccc(-c2nn3c(c2-c2ccnc4ccc(C(N)=O)cc24)CCC3)n1 [Galunisertib] | 3.4 DSS | 0 DSS | 13.8 DSS | 0 DSS | 0 DSS | 0 DSS
Cc1cc(Nc2cc(CN3CCOCC3)c3nc(C)c(Cc4ccc(Cl)cc4F)n3n2)n[nH]1 [Gandotinib] | 7.6 DSS | 3.7 DSS | 4 DSS | 9 DSS | 12.1 DSS | 9.7 DSS
CC(C)c1cc(-c2n[nH]c(=O)n2-c2ccc3c(ccn3C)c2)c(O)cc1O [Ganetespib] | 14.8 DSS | 17.1 DSS | 21 DSS | 22.3 DSS | 22.9 DSS | 27.1 DSS
CN(C)C1CCN(C(=O)c2ccc(NC(=O)Nc3ccc(-c4nc(N5CCOCC5)nc(N5CCOCC5)n4)cc3)cc2)CC1 [Gedatolisib] | 16.8 DSS | 16 DSS | 21.3 DSS | 8.7 DSS | 2 DSS | 8.2 DSS
COc1cc2ncnc(Nc3ccc(F)c(Cl)c3)c2cc1OCCCN1CCOCC1 [Gefitinib] | 2.9 DSS | 3 DSS | 0 DSS | 5.8 DSS | 0 DSS | 3.7 DSS
Nc1ccn([C@@H]2O[C@H](CO)[C@@H](O)C2(F)F)c(=O)n1 [Gemcitabine] | 18.4 DSS | 25.2 DSS | 26.7 DSS | 29.5 DSS | 27.2 DSS | 26.3 DSS
CCc1nc(C(N)=O)c(Nc2ccc(N3CCC(N4CCN(C)CC4)CC3)c(OC)c2)nc1NC1CCOCC1 [Gilteritinib] | 0.4 DSS | 0 DSS | 0 DSS | 1.5 DSS | 0 DSS | 0 DSS
CCN(CC)Cc1ccc2cc(COC(=O)Nc3ccc(C(=O)NO)cc3)ccc2c1 [Givinostat] | 8.6 DSS | 7.4 DSS | 6.1 DSS | 14.9 DSS | 8.5 DSS | 8.8 DSS
CN1CC[C@@H](NC(=O)Nc2ccc(C#N)cc2)C[C@@H]1c1nc2ccccc2[nH]1 [Glasdegib] | 0.5 DSS | 1.1 DSS | 0 DSS | 0 DSS | 0 DSS | 0 DSS
COCCNCc1ccc(-c2cc3nccc(Oc4ccc(NC(=S)NC(=O)Cc5ccc(F)cc5)cc4F)c3s2)nc1 [Glesatinib] | 2.7 DSS | 1.6 DSS | 2.3 DSS | 0 DSS | 3.5 DSS | 0 DSS
CN1CCN(C2CCN(C(=O)Nc3cc(Oc4ccc(NC(=O)C5(C(=O)Nc6ccc(F)cc6)CC5)c(F)c4)ccn3)CC2)CC1 [Golvatinib] | 0 DSS | 0 DSS | 0 DSS | 0 DSS | 0 DSS | 0 DSS

Structure (SMILES) | drug sensitivity score (KURAMOCHI; [1]) | drug sensitivity score (KURAMOCHI; co-cultured fibroblast: WI38) | drug sensitivity score (KURAMOCHI; [2]) | drug sensitivity score (OVCAR8; [1]) | drug sensitivity score (OVCAR8; co-cultured fibroblast: WI38) | drug sensitivity score (OVCAR8; [2])
CC(C)C[C@H](NC(=O)[C@@H](COC(C)(C)C)NC(=O)[C@H](Cc1ccc(O)cc1)NC(=O)[C@H](CO)NC(=O)[C@H](Cc1c[nH]c2ccccc12)NC(=O)[C@H](Cc1cnc[nH]1)NC(=O)[C@@H]1CCC(=O)N1)C(=O)N[C@@H](CCCNC(=N)N)C(=O)N1CCC[C@H]1C(=O)NNC(N)=O [Goserelin] | 0 DSS | 0 DSS | 0 DSS | 0 DSS | 0 DSS | 0 DSS
O=S(=O)(c1cccc2c(O)nccc12)N1CCCNCC1 [Hydroxyfasudil] | 0 DSS | 1 DSS | 2 DSS | 0 DSS | 1.2 DSS | 0 DSS
NC(=O)NO [Hydroxyurea] | 5.9 DSS | 7.3 DSS | 6.3 DSS | 1.8 DSS | 7.3 DSS | 7.7 DSS
COc1cc2c(cc1-c1c(C)noc1C)ncc1[nH]c(=O)n([C@H](C)c3ccccn3)c12 [I-BET151] | 9.5 DSS | 9.4 DSS | 6.3 DSS | 14.1 DSS | 4 DSS | 15.9 DSS
O=C(O)c1ccc(O)c2ncccc12 [IOX-1] | 3.6 DSS | 5.9 DSS | 5.5 DSS | 3.4 DSS | 0.7 DSS | 4.8 DSS
O=C(O)CNC(=O)c1c(O)c2ccccc2n(Cc2ccccc2)c1=O [IOX-2] | 0.4 DSS | 0 DSS | 1.3 DSS | 0 DSS | 0 DSS | 0.5 DSS
C=CC(=O)N1CCC[C@@H](n2nc(-c3ccc(Oc4ccccc4)cc3)c3c(N)ncnc32)C1 [Ibrutinib] | 3.1 DSS | 3 DSS | 0 DSS | 1.1 DSS | 0 DSS | 0 DSS
C#Cc1cccc(Nc2ncnc3cc4c(cc23)OCCOCCOCCO4)c1 [Icotinib] | 0 DSS | 0.2 DSS | 9.7 DSS | 0.1 DSS | 0 DSS | 0 DSS
CC(=O)[C@]1(O)Cc2c(O)c3c(c(O)c2[C@@H](O[C@H]2C[C@H](N)[C@H](O)[C@H](C)O2)C1)C(=O)c1ccccc1C3=O [Idarubicin] | 14.5 DSS | 14.4 DSS | 27.8 DSS | 17.6 DSS | 19.3 DSS | 22.1 DSS
COc1cc(C(=O)O)ccc1NC(=O)[C@@H]1N[C@@H](CC(C)(C)C)[C@](C#N)(c2ccc(Cl)cc2F)[C@H]1c1cccc(Cl)c1F [Idasanutlin] | 0 DSS | 1.1 DSS | 0 DSS | 1.3 DSS | 4.2 DSS | 0 DSS
CC[C@H](Nc1ncnc2[nH]cnc12)c1nc2cccc(F)c2c(=O)n1-c1ccccc1 [Idelalisib] | 10.9 DSS | 5.5 DSS | 3.9 DSS | 2.9 DSS | 0 DSS | 0.3 DSS
CC(C)Cn1cnc2c(N)nc3ccccc3c21 [Imiquimod] | 0 DSS | 0.1 DSS | 13.4 DSS | 0.4 DSS | 0 DSS | 2.8 DSS
O=C(Nc1ccncc1)C(=O)c1cn(Cc2ccc(Cl)cc2)c2ccccc12 [Indibulin] | 13.1 DSS | 17.2 DSS | 19.5 DSS | 11 DSS | 26.6 DSS | 21.2 DSS
CCN1CCN(c2ccc(Nc3cc(N(C)C(=O)Nc4c(Cl)c(OC)cc(OC)c4Cl)ncn3)cc2)CC1 [Infigratinib] | 0 DSS | 0 DSS | 0 DSS | 0 DSS | 0 DSS | 0 DSS
CC(C)NC[C@@H](C(=O)N1CCN(c2ncnc3c2[C@H](C)C[C@H]3O)CC1)c1ccc(Cl)cc1 [Ipatasertib] | 1.5 DSS | 0.5 DSS | 0 DSS | 1.9 DSS | 0 DSS | 1.9 DSS
CCC(C)n1ncn(-c2ccc(N3CCN(c4ccc(OCC5COC(Cn6cncn6)(c6ccc(Cl)cc6Cl)O5)cc4)CC3)cc2)c1=O (configuration not stated) [Itraconazole] | 0 DSS | 0 DSS | 0 DSS | 1 DSS | 11.5 DSS | 0.1 DSS
N#Cc1ccnc(N2C(=O)CC[C@H]2C(=O)N(c2cncc(F)c2)[C@H](C(=O)NC2CC(F)(F)C2)c2ccccc2Cl)c1 [Ivosidenib] | 0 DSS | 0 DSS | 0 DSS | 2.1 DSS | 0.3 DSS | 0.2 DSS
C/C(=C\c1csc(C)n1)[C@@H]1C[C@@H]2O[C@]2(C)CCC[C@H](C)[C@H](O)[C@@H](C)C(=O)C(C)(C)[C@@H](O)CC(=O)N1 [Ixabepilone] | 4.9 DSS | 4.6 DSS | 0.8 DSS | 5.8 DSS | 5.6 DSS | 3.6 DSS
CC(C)C[C@H](NC(=O)CNC(=O)c1cc(Cl)ccc1Cl)B(O)O [Ixazomib] | 1 DSS | 11.6 DSS | 7.6 DSS | 1.8 DSS | 8.7 DSS | 11.3 DSS
CC(C)NC(=O)COc1cccc(-c2nc(Nc3ccc4[nH]ncc4c3)c3ccccc3n2)c1 [KD025] | 1.2 DSS | 1.3 DSS | 0 DSS | 5 DSS | 8.3 DSS | 0.3 DSS
CS(=O)(=O)CCNCc1ccc(-c2ccc3ncnc(Nc4ccc(OCc5cccc(F)c5)c(Cl)c4)c3c2)o1 [Lapatinib] | 9.2 DSS | 6.8 DSS | 0 DSS | 0.7 DSS | 0 DSS | 0 DSS
O=C(Nc1cnn2ccc(N3CCC[C@@H]3c3cc(F)ccc3F)nc12)N1CC[C@H](O)C1 [Larotrectinib] | 0 DSS | 0 DSS | 0 DSS | 0.2 DSS | 1.6 DSS | 0 DSS
Oc1ccc2c(c1)CC[C@H](c1ccccc1)[C@@H]2c1ccc(OCCN2CCCC2)cc1 [Lasofoxifene] | 0 DSS | 0 DSS | 0 DSS | 0 DSS | 5.5 DSS | 0 DSS
Nc1cccc2c1CN(C1CCC(=O)NC1=O)C2=O (configuration not stated) [Lenalidomide] | 0.1 DSS | 2.6 DSS | 10.7 DSS | 0 DSS | 0 DSS | 1.8 DSS
COc1cc2nccc(Oc3ccc(NC(=O)NC4CC4)c(Cl)c3)c2cc1C(N)=O [Lenvatinib] | 0.2 DSS | 0 DSS | 0 DSS | 0 DSS | 0 DSS | 0.7 DSS
N#Cc1ccc(C(c2ccc(C#N)cc2)n2cncn2)cc1 [Letrozole] | 0 DSS | 0 DSS | 0 DSS | 0 DSS | 0 DSS | 0 DSS
